Assays:
HEp-2 = assay: Concentration required to produce 50% reduction in cloning of H.Ep.No.2 cells by 50%; format: functional, cell-based; details: Homo sapiens
L1210 = assay: Concentration required to produce 50% reduction in the rate of proliferation of L1210 cells; format: functional, cell-based; details: Mus musculus

Compound: Nc1nc(F)nc2c1ncn2C1O[C@H](CO)[C@H](O)[C@H]1N (stereo partly specified)
- IC50 (HEp-2): 12 µM
- IC50 (L1210): 120 µM

Compound: [N-]=[N+]=N[C@H]1C(n2cnc3c(N)nc(F)nc32)O[C@H](CO)[C@@H]1O (stereo partly specified)
- IC50 (HEp-2): 29 µM
- IC50 (L1210): 100 µM

Compound: Nc1nc(Cl)nc2c1ncn2C1O[C@H](CO)[C@H](O)[C@H]1N (stereo partly specified)
- IC50 (HEp-2): 80 µM
- IC50 (L1210): > 120 µM

Compound: Nc1nc(Cl)nc2c1ncn2C1O[C@H](CO)[C@H](O)[C@H]1Br (stereo partly specified)
- IC50 (HEp-2): > 110 µM
- IC50 (L1210): > 110 µM

Compound: Nc1nc(Cl)nc2c1ncn2C1O[C@H](CO)[C@H](O)[C@H]1Cl (stereo partly specified)
- IC50 (HEp-2): > 120 µM
- IC50 (L1210): > 120 µM

Compound: Nc1nc(Cl)nc2c1ncn2C1O[C@H](CO)[C@H](O)[C@H]1I (stereo partly specified)
- IC50 (HEp-2): > 100 µM
- IC50 (L1210): > 100 µM

Compound: [N-]=[N+]=N[C@H]1C(n2cnc3c(N)nc(Cl)nc32)O[C@H](CO)[C@@H]1O (stereo partly specified)
- IC50 (HEp-2): > 120 µM
- IC50 (L1210): > 120 µM

Compound: Nc1nc(F)nc2c1ncn2C1O[C@H](CO)[C@H](O)[C@H]1Cl (stereo partly specified)
- IC50 (HEp-2): 100 µM
- IC50 (L1210): 60 µM

— ChEMBL document CHEMBL1124036 (J Med Chem, 1988)
